Here are results for one molecule from PMC8172068 (PLoS ONE, 2021).

The structures appear in SMILES notation.

This test deals with Acinetobacter baumannii rAcpA (Acinetobacter baumannii, UniProt A0ABX6CG12). The test can be described thus: rAcpA enzymatic kinetics with PNPP (Lineweaver-Burk). It is filed as biochemical. As to the method: Unless indicated otherwise, reaction mixtures contained 2.0 mM PNPP (Sigma Chemical Co.) or phosphorylated compounds (Sigma Chemical Co.), 0.20 M MES (Sigma Chemical Co.) buffer, pH 6.0, 2.0 mM NiCl2, and 0.080–0.30 μg total Acinetobacter baumannii rAcpA protein, and were brought to a final concentration of 0.186 μg/μL protein with addition of bovine serum albumin (BSA, BioRad Laboratories) in a total reaction volume of 200 μL (determination of released phosphate) or 300 μL (determination of released paranitrophenol). All incubations were carried out for 30 minutes at 37 °C after which time reactions were placed in an ice slurry for 3 minutes followed by addition of enzyme to the respective blanks and reactions were terminated by heating at 65 °C for 10 minutes followed by immersion in an ice slurry for 3 minutes. Released phosphate was determined by addition of 1.0 mL BIOMOL GREEN phosphate reagent (Enzo Life Sciences), and monitored at 620 nm using a Genesys 10 UV Scanning Spectrophotometer (Thermo Scientific). Paranitrophenol was monitored at 405 nm following addition of 1.7 mL 0.5 M Glycine buffer, pH 10. Following subtraction of blank values, paranitrophenol and released phosphate were quantitated using paranitrophenol and phosphate standard curves, respectively. All reactions, i.e., generation of paranitrophenol and release of free phosphate were linear with both time (30 minutes) and assay protein (0.30 μg, ~ 13.2 nM). Specific activity is expressed as nmoles paranitrophenol or free phosphate liberated mg^-1s^-1.
The effect of increasing PNPP substrate on Acinetobacter baumannii rAcpA activity was determined.
Fig 4 Determination of Km and Vmax. Enzymatic activity (0.149 μg rAcpA) was determined over a broad range of PNPP concentrations (0.10–10.0 mM) in replicates of five for each substrate concentration tested and corresponding blank. Km and Vmax values were derived from standard Lineweaver-Burk plot analysis. Error bars represent 1 standard deviation from the mean.

Setting [1] is: PNPP 0.10–10.0 mM, 0.149 μg rAcpA, Lineweaver-Burk plot.

For the molecule `O=[N+]([O-])c1ccc(OP(=O)(O)O)cc1` [PNPP], under setting [1], the Km (in general, the substrate concentration at which the rate is half of its maximum) was 90 µM and the Vmax (usually the top rate of the reaction or transport when substrate is in excess) was 19.2 pmol/s. In addition, for the setting “calculated on the basis of 37 kDa”, the “turnover number (kcat)” value was 4.80 s⁻¹.
